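Abbreviation: GI50, concentration required for 50% inhibition of growth. The concentration for full growth arrest is given as TGI.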
Legend:
Experiment in all cases: DTP human tumour cell line panel, 384-well format
786-0 renal = test system: 786-0 renal
A498 renal = test system: A498 renal
A549 NSCLC = test system: A549 NSCLC
ACHN renal = test system: ACHN renal
BT-549 breast = test system: BT-549 breast
CAKI-1 renal = test system: CAKI-1 renal
COLO 205 colon = test system: COLO 205 colon
DU-145 prostate = test system: DU-145 prostate
EKVX NSCLC = test system: EKVX NSCLC
HCT-116 colon = test system: HCT-116 colon
HCT-15 colon = test system: HCT-15 colon
HL-60(TB) leukemia = test system: HL-60(TB) leukemia
HOP-92 NSCLC = test system: HOP-92 NSCLC
HS 578T breast = test system: HS 578T breast
HT29 colon = test system: HT29 colon
IGROV1 ovarian = test system: IGROV1 ovarian
KM12 colon = test system: KM12 colon
LOX IMVI melanoma = test system: LOX IMVI melanoma
M14 melanoma = test system: M14 melanoma
MALME-3M melanoma = test system: MALME-3M melanoma
MCF7 breast = test system: MCF7 breast
MDA-MB-435 melanoma = test system: MDA-MB-435 melanoma
MDA-MB-468 breast = test system: MDA-MB-468 breast
MOLT-4 leukemia = test system: MOLT-4 leukemia
NCI-H226 lung = test system: NCI-H226 lung
NCI-H322M lung = test system: NCI-H322M lung
NCI-H522 lung = test system: NCI-H522 lung
NCI/ADR-RES ovarian = test system: NCI/ADR-RES ovarian
OVCAR-3 ovarian = test system: OVCAR-3 ovarian
OVCAR-5 ovarian = test system: OVCAR-5 ovarian
PC-3 prostate = test system: PC-3 prostate
RPMI-8226 leukemia = test system: RPMI-8226 leukemia
RXF 393 renal = test system: RXF 393 renal
SF-268 CNS = test system: SF-268 CNS
SF-295 CNS = test system: SF-295 CNS
SF-539 CNS = test system: SF-539 CNS
SK-MEL-2 melanoma = test system: SK-MEL-2 melanoma
SK-MEL-28 melanoma = test system: SK-MEL-28 melanoma
SK-MEL-5 melanoma = test system: SK-MEL-5 melanoma
SK-OV-3 ovarian = test system: SK-OV-3 ovarian
SNB-75 CNS = test system: SNB-75 CNS
SR leukemia = test system: SR leukemia
SW-620 colon = test system: SW-620 colon
T-47D breast = test system: T-47D breast
U251 glioblastoma = test system: U251 glioblastoma
UACC-257 melanoma = test system: UACC-257 melanoma
UACC-62 melanoma = test system: UACC-62 melanoma

CCS(=O)(=O)N1CCC(C(C)n2c(C)c(C(=O)NCc3c(OC)cc(C)[nH]c3=O)c3ccccc32)CC1 (centres undefined)
GI50 (786-0 renal): > 100 µM
TGI (786-0 renal): > 100 µM
GI50 (A498 renal): > 100 µM
TGI (A498 renal): > 100 µM
GI50 (A549 NSCLC): > 100 µM
TGI (A549 NSCLC): > 100 µM
GI50 (ACHN renal): > 100 µM
TGI (ACHN renal): > 100 µM
GI50 (BT-549 breast): > 100 µM
TGI (BT-549 breast): > 100 µM
GI50 (CAKI-1 renal): > 100 µM
TGI (CAKI-1 renal): > 100 µM
GI50 (COLO 205 colon): > 100 µM
TGI (COLO 205 colon): > 100 µM
GI50 (DU-145 prostate): > 100 µM
TGI (DU-145 prostate): > 100 µM
GI50 (EKVX NSCLC): > 100 µM
TGI (EKVX NSCLC): > 100 µM
GI50 (HCT-116 colon): > 100 µM
TGI (HCT-116 colon): > 100 µM
GI50 (HCT-15 colon): > 100 µM
TGI (HCT-15 colon): > 100 µM
GI50 (HL-60(TB) leukemia): > 100 µM
TGI (HL-60(TB) leukemia): > 100 µM
GI50 (HOP-92 NSCLC): > 100 µM
TGI (HOP-92 NSCLC): > 100 µM
GI50 (HS 578T breast): > 100 µM
TGI (HS 578T breast): > 100 µM
GI50 (HT29 colon): > 100 µM
TGI (HT29 colon): > 100 µM
GI50 (IGROV1 ovarian): > 100 µM
TGI (IGROV1 ovarian): > 100 µM
GI50 (KM12 colon): > 100 µM
TGI (KM12 colon): > 100 µM
GI50 (LOX IMVI melanoma): > 78.6 µM
TGI (LOX IMVI melanoma): > 100 µM
GI50 (M14 melanoma): > 100 µM
TGI (M14 melanoma): > 100 µM
GI50 (MALME-3M melanoma): > 100 µM
TGI (MALME-3M melanoma): > 100 µM
GI50 (MCF7 breast): > 78.3 µM
TGI (MCF7 breast): > 100 µM
GI50 (MDA-MB-435 melanoma): > 100 µM
TGI (MDA-MB-435 melanoma): > 100 µM
GI50 (MDA-MB-468 breast): 40 µM
TGI (MDA-MB-468 breast): > 100 µM
GI50 (MOLT-4 leukemia): 42.4 µM
TGI (MOLT-4 leukemia): > 100 µM
GI50 (NCI-H226 lung): > 100 µM
TGI (NCI-H226 lung): > 100 µM
GI50 (NCI-H322M lung): > 100 µM
TGI (NCI-H322M lung): > 100 µM
GI50 (NCI-H522 lung): > 100 µM
TGI (NCI-H522 lung): > 100 µM
GI50 (NCI/ADR-RES ovarian): > 100 µM
TGI (NCI/ADR-RES ovarian): > 100 µM
GI50 (OVCAR-3 ovarian): > 100 µM
TGI (OVCAR-3 ovarian): > 100 µM
GI50 (OVCAR-5 ovarian): > 100 µM
TGI (OVCAR-5 ovarian): > 100 µM
GI50 (PC-3 prostate): > 100 µM
TGI (PC-3 prostate): > 100 µM
GI50 (RPMI-8226 leukemia): 7.49 µM
TGI (RPMI-8226 leukemia): > 86.4 µM
GI50 (RXF 393 renal): > 100 µM
TGI (RXF 393 renal): > 100 µM
GI50 (SF-268 CNS): > 42.6 µM
TGI (SF-268 CNS): > 96.3 µM
GI50 (SF-295 CNS): > 100 µM
TGI (SF-295 CNS): > 100 µM
GI50 (SF-539 CNS): > 100 µM
TGI (SF-539 CNS): > 100 µM
GI50 (SK-MEL-2 melanoma): > 100 µM
TGI (SK-MEL-2 melanoma): > 100 µM
GI50 (SK-MEL-28 melanoma): > 100 µM
TGI (SK-MEL-28 melanoma): > 100 µM
GI50 (SK-MEL-5 melanoma): > 100 µM
TGI (SK-MEL-5 melanoma): > 100 µM
GI50 (SK-OV-3 ovarian): > 100 µM
TGI (SK-OV-3 ovarian): > 100 µM
GI50 (SNB-75 CNS): > 100 µM
TGI (SNB-75 CNS): > 100 µM
GI50 (SR leukemia): > 100 µM
TGI (SR leukemia): > 100 µM
GI50 (SW-620 colon): > 100 µM
TGI (SW-620 colon): > 100 µM
GI50 (T-47D breast): > 64.5 µM
TGI (T-47D breast): > 100 µM
GI50 (U251 glioblastoma): > 100 µM
TGI (U251 glioblastoma): > 100 µM
GI50 (UACC-257 melanoma): > 100 µM
TGI (UACC-257 melanoma): > 100 µM
GI50 (UACC-62 melanoma): > 100 µM
TGI (UACC-62 melanoma): > 100 µM

Reference: PubChem BioAssay (NCI)
